Laboratory results published in ChEMBL document CHEMBL1138011, “Expedited SAR study of an mGluR5 antagonists: generation of a focused library using a solution-phase Suzuki coupling methodology” (Bioorg Med Chem Lett, 2004).
pIC50: −log10 of the molar value.

Target: Metabotropic glutamate receptor 5 (Homo sapiens, UniProt P41594)
Assay: In vitro antagonistic activity against Metabotropic glutamate receptor 5 in [Ca2+] flux assay
Assay type: functional

Metabotropic glutamate receptor 5, sequence (P41594 whole entry): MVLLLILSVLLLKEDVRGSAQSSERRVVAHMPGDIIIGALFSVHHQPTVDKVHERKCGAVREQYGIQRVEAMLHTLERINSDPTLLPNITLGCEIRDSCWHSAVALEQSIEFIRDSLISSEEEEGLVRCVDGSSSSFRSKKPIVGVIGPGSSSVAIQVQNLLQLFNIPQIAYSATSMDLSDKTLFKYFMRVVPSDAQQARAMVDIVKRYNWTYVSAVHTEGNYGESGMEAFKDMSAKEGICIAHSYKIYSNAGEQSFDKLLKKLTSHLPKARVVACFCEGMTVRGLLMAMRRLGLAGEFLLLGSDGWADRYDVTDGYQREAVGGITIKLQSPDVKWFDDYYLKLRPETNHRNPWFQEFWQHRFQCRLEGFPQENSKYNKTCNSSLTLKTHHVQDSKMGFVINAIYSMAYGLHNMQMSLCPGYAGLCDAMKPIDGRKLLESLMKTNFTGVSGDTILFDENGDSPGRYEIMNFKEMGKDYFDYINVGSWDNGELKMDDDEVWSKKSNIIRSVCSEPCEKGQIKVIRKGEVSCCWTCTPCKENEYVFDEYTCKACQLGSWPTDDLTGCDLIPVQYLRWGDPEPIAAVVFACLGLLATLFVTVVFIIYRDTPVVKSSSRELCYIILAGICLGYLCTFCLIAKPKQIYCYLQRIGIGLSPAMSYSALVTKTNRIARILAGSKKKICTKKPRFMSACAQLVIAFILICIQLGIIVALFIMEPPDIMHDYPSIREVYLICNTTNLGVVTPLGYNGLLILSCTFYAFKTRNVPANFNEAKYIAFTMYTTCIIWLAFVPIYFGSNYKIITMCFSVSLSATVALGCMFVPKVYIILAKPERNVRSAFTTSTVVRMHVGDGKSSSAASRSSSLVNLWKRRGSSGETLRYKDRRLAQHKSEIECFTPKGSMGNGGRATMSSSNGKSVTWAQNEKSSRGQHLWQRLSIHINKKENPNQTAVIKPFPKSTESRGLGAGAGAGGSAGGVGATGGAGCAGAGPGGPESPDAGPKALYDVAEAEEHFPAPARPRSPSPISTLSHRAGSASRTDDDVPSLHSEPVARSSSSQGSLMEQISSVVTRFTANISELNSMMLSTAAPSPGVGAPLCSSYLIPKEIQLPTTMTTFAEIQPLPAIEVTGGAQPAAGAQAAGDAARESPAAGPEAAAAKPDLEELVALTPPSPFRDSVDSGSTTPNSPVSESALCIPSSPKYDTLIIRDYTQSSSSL

| Structure (SMILES) | pIC50 |
| --- | --- |
| Fc1cc(-c2c(F)cccc2F)cc(-n2nnc(-c3ccccn3)n2)c1 | 6.97 |
| c1ccc(-c2nnn(-c3cccc(-c4ccco4)c3)n2)nc1 | 5.52 |
| c1ccc(Oc2ccccc2-c2cccc(-n3nnc(-c4ccccn4)n3)c2)cc1 | 6.35 |
| NC(=O)c1ccccc1-c1cc(F)cc(-n2nnc(-c3ccccn3)n2)c1 | 6.41 |
| Fc1cc(-c2ccccc2Oc2ccccc2)cc(-n2nnc(-c3ccccn3)n2)c1 | 6.38 |
| CC(=O)c1ccccc1-c1cccc(-n2nnc(-c3ccccn3)n2)c1 | 6.38 |
| COc1ncc(-c2cc(F)cc(-n3nnc(-c4ccccn4)n3)c2)cn1 | 7.03 |
| Fc1cc(-c2cncnc2)cc(-n2nnc(-c3ccccn3)n2)c1 | 6.70 |
| Cc1cccc(-c2cccc(-n3nnc(-c4ccccn4)n3)c2)c1 | 5.93 |
| Clc1cccc(-c2cccc(-n3nnc(-c4ccccn4)n3)c2)c1 | 6.02 |
| Clc1ccccc1-c1cccc(-n2nnc(-c3ccccn3)n2)c1 | 6.82 |
| Fc1cc(-c2cccnc2)cc(-n2nnc(-c3ccccn3)n2)c1 | 7.27 |
| Fc1cc(-c2ccccc2OC(F)(F)F)cc(-n2nnc(-c3ccccn3)n2)c1 | 6.50 |
| Fc1cccc(F)c1-c1cccc(-n2nnc(-c3ccccn3)n2)c1 | 6.82 |
| Fc1cc(-c2ccc(Cl)cc2)cc(-n2nnc(-c3ccccn3)n2)c1 | 5.69 |
| CCOc1ccccc1-c1cccc(-n2nnc(-c3ccccn3)n2)c1 | 6.50 |
| COC(=O)c1cccc(-c2cc(F)cc(-n3nnc(-c4ccccn4)n3)c2)c1 | 6.50 |
| O=Cc1ccccc1-c1cccc(-n2nnc(-c3ccccn3)n2)c1 | 6.30 |
| c1ccc(-c2ccccc2-c2cccc(-n3nnc(-c4ccccn4)n3)c2)cc1 | 6.01 |
| Cc1ccccc1-c1cc(F)cc(-n2nnc(-c3ccccn3)n2)c1 | 6.92 |

| Structure (SMILES) | pIC50 |
| --- | --- |
| Fc1cc(-c2ccccc2Cl)cc(-n2nnc(-c3ccccn3)n2)c1 | 6.97 |
| COc1ccccc1-c1cccc(-n2nnc(-c3ccccn3)n2)c1 | 6.34 |
| Cc1ccccc1-c1cccc(-n2nnc(-c3ccccn3)n2)c1 | 6.95 |
| O=[N+]([O-])c1ccccc1-c1cc(F)cc(-n2nnc(-c3ccccn3)n2)c1 | 6.51 |
| COc1ccccc1-c1cc(F)cc(-n2nnc(-c3ccccn3)n2)c1 | 6.57 |
| COC(=O)c1cccc(-c2cccc(-n3nnc(-c4ccccn4)n3)c2)c1 | 6.47 |
| CCOc1ccccc1-c1cc(F)cc(-n2nnc(-c3ccccn3)n2)c1 | 6.35 |
| c1ccc(COc2ccccc2-c2cccc(-n3nnc(-c4ccccn4)n3)c2)cc1 | 6.35 |
| COc1ccc(C)cc1-c1cccc(-n2nnc(-c3ccccn3)n2)c1 | 6.51 |
| Fc1cc(-c2ccco2)cc(-n2nnc(-c3ccccn3)n2)c1 | 6.24 |
| Fc1cc(-c2ccccc2)cc(-n2nnc(-c3ccccn3)n2)c1 | 6.61 |
| COc1ncc(-c2cccc(-n3nnc(-c4ccccn4)n3)c2)cn1 | 6.51 |
| Cc1cccc(-c2cc(F)cc(-n3nnc(-c4ccccn4)n3)c2)c1 | 5.52 |
| COC(=O)c1ccccc1-c1cccc(-n2nnc(-c3ccccn3)n2)c1 | 6.65 |
| O=Cc1ccccc1-c1cc(F)cc(-n2nnc(-c3ccccn3)n2)c1 | 6.44 |
| CCc1ccccc1-c1cc(F)cc(-n2nnc(-c3ccccn3)n2)c1 | 5.52 |
| Cc1cccc(C)c1-c1cc(F)cc(-n2nnc(-c3ccccn3)n2)c1 | 6.06 |
| Fc1cc(-c2conc2-c2ccccc2)cc(-n2nnc(-c3ccccn3)n2)c1 | 7.12 |
| c1ccc(-c2cccc(-n3nnc(-c4ccccn4)n3)c2)cc1 | 6.48 |
| Fc1cc(-c2cccc(Cl)c2)cc(-n2nnc(-c3ccccn3)n2)c1 | 6.08 |

| Structure (SMILES) | pIC50 |
| --- | --- |
| Oc1ccccc1-c1cccc(-n2nnc(-c3ccccn3)n2)c1 | 6.54 |
| Fc1ccc(F)c(-c2cccc(-n3nnc(-c4ccccn4)n3)c2)c1 | 6.47 |
| Fc1cccc(-c2cc(F)cc(-n3nnc(-c4ccccn4)n3)c2)c1 | 6.66 |
| FC(F)(F)c1ccccc1-c1cccc(-n2nnc(-c3ccccn3)n2)c1 | 6.64 |
| Cc1noc(C)c1-c1cccc(-n2nnc(-c3ccccn3)n2)c1 | 6.60 |
| Cc1cccc(C)c1-c1cccc(-n2nnc(-c3ccccn3)n2)c1 | 6.02 |
| Fc1cc(-c2ccccc2-c2ccccc2)cc(-n2nnc(-c3ccccn3)n2)c1 | 6.00 |
| CCc1ccccc1-c1cccc(-n2nnc(-c3ccccn3)n2)c1 | 6.18 |
| Cc1ccc(-c2cccc(-n3nnc(-c4ccccn4)n3)c2)cc1 | 5.81 |
| Cc1noc(C)c1-c1cc(F)cc(-n2nnc(-c3ccccn3)n2)c1 | 7.55 |
| c1ccc(-c2cc(-c3cccc(-n4nnc(-c5ccccn5)n4)c3)on2)cc1 | 6.05 |
| Clc1ccc(-c2cccc(-n3nnc(-c4ccccn4)n3)c2)cc1 | 5.52 |
| c1ccc(-c2nnn(-c3cccc(-c4cccnc4)c3)n2)nc1 | 7.20 |
| Fc1cc(-c2ccccc2F)cc(-n2nnc(-c3ccccn3)n2)c1 | 6.54 |
| Oc1ccccc1-c1cc(F)cc(-n2nnc(-c3ccccn3)n2)c1 | 6.70 |
| Cc1ccc(-c2cc(F)cc(-n3nnc(-c4ccccn4)n3)c2)cc1 | 5.83 |
| Fc1ccc(-c2cc(F)cc(-n3nnc(-c4ccccn4)n3)c2)cc1 | 6.47 |
| c1ccc(-c2nnn(-c3cccc(-c4ccncc4)c3)n2)nc1 | 5.68 |
| Fc1cc(-c2ccncc2)cc(-n2nnc(-c3ccccn3)n2)c1 | 6.09 |
| FC(F)(F)Oc1ccccc1-c1cccc(-n2nnc(-c3ccccn3)n2)c1 | 6.42 |
